# Laboratory results as given in US8324177B2, “Triterpene compositions and methods for use thereof” (Research Development Foundation, priority 1998, dated 2012).
# Test system: poly (ADP-ribose) polymerase (PARP) cleavage in Jurkat cells
# Assay: Immunoblot analysis of PARP degradation
# Format: cell-based, human
# Settings: 100 μM, 1 h pretreatment
# Experimental: Apoptosis induced by F035 & D1 was examined by proteolytic cleavage of poly (ADP-ribose) polymerase (PARP). Jurkat cells (2×10^6/ml) were treated with F035 (2 μg/ml) and D1 (2 μg/ml) for different lengths of time. Cell lysates were prepared in buffer containing 20 mM HEPES, 250 mM NaCl, 2 mM EDTA, 0.1% NP-40, 2 μg/ml leupeptin, 2 μg/ml aprotinin, 0.5 μg/ml benzamidine, 1 mM DTT and 1 mM PMSF. Cellular proteins (60 μg/ml) were separated on a 7.5% SDS polyacrylamide gel and electrotransferred onto a nitrocellulose membrane. The membrane was probed first with monclonal anti-PARP antibody (PharMingen) and then with anti-mouse antibody conjugated to horse radish peroxidase (HRPO). Protein bands were detected by chemiluminescense (ECL, Amersham). The extent of cleavage of the 116-kDa PARP into 85-kDa and 41-kDa peptide products was used as a measure of apoptosis (Tewari et al., 1995).
substance,measurement,value
z-vad fmk,Effect on F035 induced cleavage of PARP (in words),completely reversed
